Assay results as given in patent publication US8017606B2, “Quinoline derivatives as antibacterial agents” (Janssen Pharmaceutica NV, priority 2005, dated 2011).
Converted amounts (≈) assume the structure as drawn.

What was measured:
Assay in all cases: Microtitre plate assay, IC90 determination
Format in all cases: cell-based
[1] = system: Bacillus subtilis (ATCC43639); settings: 90% inhibitory concentration for bacterial growth, 37° C., resazurin fluorescence, read-out: IC90 (μg/ml) BSU 43639
Description: (§1) The bacteria used in this study were grown overnight in flasks containing 100 ml Mueller-Hinton Broth (Becton Dickinson—cat. no. 275730) in sterile de-ionized water, with shaking, at 37° C. Stocks (0.5 ml/tube) were stored at −70° C. until use. Bacteria titrations were performed in microtiter plates and colony forming units (CFUs) were determined. In general, an inoculum level of approximately 100 CFUs was used for susceptibility testing.
(§2) Anti Bacterial Susceptibility Testing: IC90 Determination
(§3) Flat-bottom, sterile 96-well plastic microtiter plates were filled with 180 μl of sterile deionized water, supplemented with 0.25% BSA. Subsequently, stock solutions (7.8×final test concentration) of compounds were added in 45 μl volumes in column 2 Serial five-fold dilutions (45 μl in 180 μl) were made directly in the microtiter plates from column 2 to reach column 11. Untreated control samples with (column 1) and without (column 12) inoculum were included in each microtiter plate. Depending on the bacteria type, approximately 10 to 60 CFU per well of bacteria inoculum (100 TCID50), in a volume of 100 μl in 2.8× Mueller-Hinton broth medium, was added to the rows A to H, except column 12. The same volume of broth medium without inoculum was added to column 12 in row A to H. The cultures were incubated at 37° C. for 24 hours under a normal atmosphere (incubator with open air valve and continuous ventilation). At the end of incubation, one day after inoculation, the bacterial growth was quantitated fluorometrically. Therefore resazurin (0.6 mg/ml) was added in a volume of 20 μl to all wells […], and the plates were re-incubated overnight. A change in colour from blue to pink indicated the growth of bacteria.
(§4) The fluorescence was read in a computer-controlled fluorometer (Cytofluor Biosearch) at an excitation wavelength of 530 nm and an emission wavelength of 590 nm. The % growth inhibition achieved by the compounds was calculated according to standard methods. The IC90 (expressed in μg/ml) was defined as the 90% inhibitory concentration for bacterial growth.

[2] = system: Enterococcus faecalis (ATCC29212); settings: 90% inhibitory concentration for bacterial growth, 37° C., resazurin fluorescence, read-out: IC90 (μg/ml) EFA 29212
Description: as §1, §2, §3, §4

[3] = system: Escherichia coli (ATCC1403); settings: 90% inhibitory concentration for bacterial growth, 37° C., resazurin fluorescence, read-out: IC90 (μg/ml) ECO 1403
Description: as §1, §2, §3, §4

[4] = system: Escherichia coli (ATCC25922); settings: 90% inhibitory concentration for bacterial growth, 37° C., resazurin fluorescence, read-out: IC90 (μg/ml) ECO 25922
Description: as §1, §2, §3, §4

[5] = system: Escherichia coli (ATCC35218); settings: 90% inhibitory concentration for bacterial growth, 37° C., resazurin fluorescence, read-out: IC90 (μg/ml) ECO 35218
Description: as §1, §2, §3, §4

[6] = system: Listeria monocytogenes (ATCC49594); settings: 90% inhibitory concentration for bacterial growth, 37° C., resazurin fluorescence, read-out: IC90 (μg/ml) LMO 49594
Description: as §1, §2, §3, §4

[7] = system: Pseudomonas aeruginosa (ATCC27853); settings: 90% inhibitory concentration for bacterial growth, 37° C., resazurin fluorescence, read-out: IC90 (μg/ml) PAE 27853
Description: as §1, §2, §3, §4

[8] = system: Staphylococcus aureus (ATCC25923); settings: 90% inhibitory concentration for bacterial growth, 37° C., resazurin fluorescence, read-out: IC90 (μg/ml) STA 25923
Description: as §1, §2, §3, §4

[9] = system: Staphylococcus aureus (ATCC29213); settings: 90% inhibitory concentration for bacterial growth, 37° C., resazurin fluorescence, read-out: IC90 (μg/ml) STA 29213
Description: as §1, §2, §3, §4

[10] = system: Streptococcus mutans (ATCC33402); settings: 90% inhibitory concentration for bacterial growth, 37° C., resazurin fluorescence, read-out: IC90 (μg/ml) SMU 33402
Description: as §1, §2, §3, §4

[11] = system: Streptococcus pneumoniae (ATCC6305); settings: 90% inhibitory concentration for bacterial growth, 37° C., resazurin fluorescence, read-out: IC90 (μg/ml) SPN 6305
Description: as §1, §2, §3, §4

[12] = system: Streptococcus pyogens (ATCC8668); settings: 90% inhibitory concentration for bacterial growth, 37° C., resazurin fluorescence, read-out: IC90 (μg/ml) SPY 8668
Description: as §1, §2, §3, §4

[13] = system: methicilline resistant Staphylococcus aureus (MRSA) (a clinical isolate from the University of Antwerp); settings: 90% inhibitory concentration for bacterial growth, 37° C., resazurin fluorescence, read-out: IC90 (μg/ml) STA RMETHIC
Description: as §1, §2, §3, §4

[14] = system: Enterococcus faecalis (ATCC14506); settings: 90% inhibitory concentration for bacterial growth, 37° C., resazurin fluorescence, read-out: IC90 (μg/ml) EFA 14506
Description: as §1, §2, §3, §4

[15] = system: Staphylococcus aureus (ATCC43300); settings: 90% inhibitory concentration for bacterial growth, 37° C., resazurin fluorescence, read-out: IC90 (μg/ml) STA 43300
Description: as §1, §2, §3, §4

| SMILES | IC90 [1] [µg/mL] | IC90 [2] [µg/mL] | IC90 [3] [µg/mL] | IC90 [4] [µg/mL] | IC90 [5] [µg/mL] | IC90 [6] [µg/mL] | IC90 [7] [µg/mL] | IC90 [8] [µg/mL] | IC90 [9] [µg/mL] | IC90 [10] [µg/mL] | IC90 [11] [µg/mL] | IC90 [12] [µg/mL] | IC90 [13] [µg/mL] | IC90 [14] [µg/mL] | IC90 [15] [µg/mL] |
| --- | --- | --- | --- | --- | --- | --- | --- | --- | --- | --- | --- | --- | --- | --- | --- |
| CN(C)CCC(O)(c1cccs1)c1cc(Br)cc2cc(Cc3ccccc3)c(N3CCN(C)CC3)nc12 (stereo not shown) [Compound 20] | 14.6 (≈ 25.2 µM) | 14.6 (≈ 25.2 µM) | 13 (≈ 22.4 µM) | 14.6 (≈ 25.2 µM) | 11.6 (≈ 20 µM) | 14.6 (≈ 25.2 µM) | 14.6 (≈ 25.2 µM) | 13 (≈ 22.4 µM) | 11.6 (≈ 20 µM) | 14.6 (≈ 25.2 µM) | 14.6 (≈ 25.2 µM) | 11.6 (≈ 20 µM) | 46 (≈ 79.4 µM) | – | – |
| CN(C)CCOc1nc2c(C(O)(CCN(C)C)c3ccccc3)cc(Br)cc2cc1Cc1ccccc1 (stereo not shown) [Compound 49] | 56.3 (≈ 100 µM) | 56.3 (≈ 100 µM) | – | 56.3 (≈ 100 µM) | – | 56.3 (≈ 100 µM) | 56.3 (≈ 100 µM) | 56.3 (≈ 100 µM) | 44.7 (≈ 79.5 µM) | 44.7 (≈ 79.5 µM) | 56.3 (≈ 100 µM) | 22.4 (≈ 39.8 µM) | 56.3 (≈ 100 µM) | – | – |
| CN(C)CCC(O)(c1ccccc1)c1cc(Br)cc2cc(Cc3ccccc3)c(NCCC(c3ccccc3)c3ccccc3)nc12 (stereo not shown) [Compound 59] | 10.9 (≈ 15.9 µM) | 17.2 (≈ 25.1 µM) | – | – | 15.3 (≈ 22.3 µM) | 10.9 (≈ 15.9 µM) | 17.2 (≈ 25.1 µM) | 54.4 (≈ 79.4 µM) | 15.3 (≈ 22.3 µM) | 15.3 (≈ 22.3 µM) | 17.2 (≈ 25.1 µM) | 15.3 (≈ 22.3 µM) | 54.4 (≈ 79.4 µM) | 54.4 (≈ 79.4 µM) | 17.2 (≈ 25.1 µM) |
